Data as given in US20090019557A1, “FGF2-RELATED METHODS FOR DIAGNOSING AND TREATING DEPRESSION” (priority 2005, published 2009).

Tests used:
rats [1] = experiment: Forced swim test (FST) after microinjection; format: in vivo; conditions: versus controls
Excerpt: (§1) This is indicative of less depression-like behavior in FGF2 animals.
(§2) Again, this is an index of less depression-like behavior. This is also in the same direction as the FGF2 data, consistent with the fact that both FGF2 and NCAM interact with the FGF receptor.
(§3) These observations are nevertheless consistent with the conclusions drawn from the microinjection studies above.

rats [2] = experiment: Elevated plus maze (EPM) after acute microinjection; format: in vivo; conditions: versus controls
Excerpt: as §1, §2, §3

[3] = system: FGFR2 and FGFR3 exon IIIc:IIIb splice variants; experiment: Real time RT-PCR of exon IIIc:IIIb splice variant ratio in frontal cortex, chronic unpredictable stress; format: in vivo, rats; conditions: 5 ng/g i.p. every 48 hours for three weeks
Method: Animals. Twenty-four male Sprague-Dawley rats weighing 220-250 g were ordered from Charles River (Wilmington, Mass.) and remained undisturbed for one week to acclimatize to housing conditions. The animals were housed in pairs on a 12 h light-dark cycle (lights on 6:00 A.M.) with food and water available ad libitum. All experiments were conducted in accordance with the NIH Guide for the Care and Use of Animals and the University Committee on the Use and Care of Animals.
FGF2 injection treatments and chronic unpredictable stress (CUS) conditions. […]
Total RNA extraction. […] Using the Bioanalyzer's concentration readings, the samples were normalized to 25 ng/μL of total RNA per subject and stored at −80° C.
cDNA synthesis. cDNA was synthesized using the iScript cDNA Synthesis Kit (Bio-Rad, Hercules, Calif.). […] The double-stranded cDNA solutions were then analyzed for quality and concentration using Invitrogen's Quant-iT PicoGreen dsDNA kit. […] The fluorescently labeled samples were analyzed with a 1420 Victor^2 Multilabel Counter (EG&G Wallac, Wellesley, Mass.) using the basic Fluorescein protocol. […]
Real time RT-PCR primer design. […] Exon sequences were analyzed using NCBI's nucleotide and protein BLAST and were matched with their corresponding protein products within the receptor structures (FIG. 11). […]

[4] = system: GAP-43, Rgs4, trkb, CCK, SST, Vgf, NCAM expression; experiment: Hippocampal (dentate gyrus) gene expression in adult rats after early postnatal FGF2; format: in vivo; conditions: FGF2 20 ng/g s.c. the day after birth
Method: (§4) Methods. Sprague-Dawley rats were injected with either vehicle or FGF2 (20 ng/g, s.c.) the day after birth and sacrificed after Morris water maze testing as adults. We assessed changes in gene expression using both a candidate approach and a gene discovery approach with laser-capture microdissection of the dentate gyrus followed by microarray analyses.
Results. […] Several genes associated with neural plasticity were also found altered in the adult rats, as shown by histochemical and RNA expression assays. For example, expression of GAP-43, Rgs4, trkb, CCK, SST, and Vgf was increased, while expression of NCAM was decreased.

Sprague-Dawley rats = experiment: Morris water maze learning and memory test in adults after early postnatal FGF2; format: in vivo; conditions: 20 ng/g s.c. the day after birth, tested as adults
Method: as §4

rats [5] = experiment: Elevated plus-maze (EPM) and light-dark (LD) anxiety tests after chronic FGF2; format: in vivo; conditions: 5 ng/g i.p. every 48 hours for 3 weeks
Method: Anxiety disorders have a high comorbidity with other neuropsychiatric disorders including Major Depression (MD). […] Rats were placed into “high anxiety” (LR) or “low anxiety” (HR) groups based on their behavior in a variety of motor and behavioral tests. Both groups of animals were administered either FGF2 (5 ng/g) or vehicle by intraperitoneal injection every 48 hours for 3 weeks. One day after the last FGF2 injection, all animals were tested in the elevated plus-maze (EPM) and light-dark (LD) anxiety test.
The apparatus for the EPM test is constructed of black Plexiglass with […] (70 cm from the floor, 45 cm long, and 12 cm wide). Illumination is provided by a 40-watt desk lamp facing a wall and placed behind one of the closed arms. The scientists put the animal inside the system. Animals that are less anxious spend more time in the open arms whereas animals that are more anxious spend less time in the open arms.
The LD test is conducted in a 30×60×30-cm Plexiglas shuttle box with a translucent cover. Each box is divided into two equal-sized compartments by a wall with a 12 cm-wide open door. One compartment is painted white and brightly illuminated, and the other is painted black with very dim light. The time each rat spends in each compartment is monitored by rows of five photocells located 2.5 cm above the grid floor of each compartment. […]

Substance: EVYVVAENQQGKSKA [NCAM]
- immobility in FST (rats [1]): less immobility
- time in the center quadrant of EPM (rats [2]): significantly less time
- time in the closed arms of EPM (rats [2]): more time (although not significantly more time)
- time in the open arms of EPM (rats [2]): less time

Substance: FGF2: human recombinant FGF2 (Sigma); ligand of the FGF receptor
- effect on magnitude of IIIc:IIIb ratio changes caused by stress [3]: nor did it significantly affect
- effect on exon IIIc:IIIb ratio ([3]; NS or S group, P>0.1): did not alter the IIIc:IIIb ratio significantly
- expression of CCK [4]: increased
- expression of NCAM [4]: decreased
- expression of Rgs4 [4]: increased
- expression of SST [4]: increased
- expression of Vgf [4]: increased
- expression of trkb [4]: increased
- expression of GAP-43 ([4]; histochemical and RNA expression assays): increased
- time on average to find a hidden platform in Morris Water maze test (Sprague-Dawley rats): 20 s
- performance in learning and memory tests (Sprague-Dawley rats; versus vehicle): significantly better
- immobility in FST (rats [1]): less immobility
- swimming in FST (rats [1]): more swimming
- anxiety versus vehicle animals (rats [5]; tested one day after last injection): less anxious
- anxiety-reducing effect in innately more anxious (LR) rats (rats [5]; LR versus HR rats): clearly more pronounced
- time in the closed arms of EPM (rats [2]): significantly more time
- time in the open arms of EPM (rats [2]): less time

Substance: HFKDPKRLY [FGF system peptide inhibitor]
- climbing in FST (rats [1]): significantly less climbing
- immobility in FST (rats [1]): more immobility
- swimming in FST (rats [1]): less swimming
- time in the center quadrant of EPM (rats [2]): significantly more time
- time in the closed arms of EPM (rats [2]): less time
- time in the open arms of EPM (rats [2]): equal time
